Values quoted from earlier work as cited in patent EP1556366B1, “PROCESS FOR THE E[…] OLEFINS” (Degussa AG, priority 2002, dated 2004).
Read-outs that look alike come from different tables or passages of the source.

Structure (SMILES)	pkB	pkB (Table 2, nitrogen bases)
CN(C)C [Me3N, trimethyl amine]	4.26	4.26
CN [MeNH2, methyl amine]	3.36	3.36
